Experiment [1] has as its target T1, IGF-1R (Homo sapiens, UniProt P08069).
T1 construct: expressed in transfected cells
The experiment can be described thus: Example B-1: IGF-1R Assay (PC3 cells stimulated with IGF1, AlphaLISA on cell lysates). The format is cell-based. The note with it: compound two hours, IGF1 200 ng/mL for 30 min, read-out: IC50, Biological Activity against IGF-1R (Table B1). In a few lines:
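PC3 cells serum-starved 2 h, treated 2 h with 3-fold serially diluted compound, then stimulated 30 min with IGF1 (200 ng/mL final). Lysates analysed by AlphaLISA; % inhibition calculated relative to vehicle and EC80 controls, IC50 derived.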
A general note: Alpha assays give light when donor and acceptor beads are brought close together.

The target in experiment [2] is T1, IGF-1R. The experiment is described as follows: Example B-2: IGF-1R Assay (PathHunter cell lines, EC80 agonist challenge, chemiluminescent detection). It is filed as cell-based. Particulars: PathHunter cells, compound 60 minutes at 37° C., EC80 agonist 3 hours; read-out: IC50, Biological Activity against IGF-1R (Table B2). Summed up:
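PathHunter cells were pre-incubated with compound for 60 min at 37° C (1% vehicle), then challenged with EC80 agonist for 3 h at room temperature. Chemiluminescent detection after 1 h gave % inhibition relative to EC80 and vehicle controls, from which IC50 was derived.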

T1 sequence (P08069 31-1367): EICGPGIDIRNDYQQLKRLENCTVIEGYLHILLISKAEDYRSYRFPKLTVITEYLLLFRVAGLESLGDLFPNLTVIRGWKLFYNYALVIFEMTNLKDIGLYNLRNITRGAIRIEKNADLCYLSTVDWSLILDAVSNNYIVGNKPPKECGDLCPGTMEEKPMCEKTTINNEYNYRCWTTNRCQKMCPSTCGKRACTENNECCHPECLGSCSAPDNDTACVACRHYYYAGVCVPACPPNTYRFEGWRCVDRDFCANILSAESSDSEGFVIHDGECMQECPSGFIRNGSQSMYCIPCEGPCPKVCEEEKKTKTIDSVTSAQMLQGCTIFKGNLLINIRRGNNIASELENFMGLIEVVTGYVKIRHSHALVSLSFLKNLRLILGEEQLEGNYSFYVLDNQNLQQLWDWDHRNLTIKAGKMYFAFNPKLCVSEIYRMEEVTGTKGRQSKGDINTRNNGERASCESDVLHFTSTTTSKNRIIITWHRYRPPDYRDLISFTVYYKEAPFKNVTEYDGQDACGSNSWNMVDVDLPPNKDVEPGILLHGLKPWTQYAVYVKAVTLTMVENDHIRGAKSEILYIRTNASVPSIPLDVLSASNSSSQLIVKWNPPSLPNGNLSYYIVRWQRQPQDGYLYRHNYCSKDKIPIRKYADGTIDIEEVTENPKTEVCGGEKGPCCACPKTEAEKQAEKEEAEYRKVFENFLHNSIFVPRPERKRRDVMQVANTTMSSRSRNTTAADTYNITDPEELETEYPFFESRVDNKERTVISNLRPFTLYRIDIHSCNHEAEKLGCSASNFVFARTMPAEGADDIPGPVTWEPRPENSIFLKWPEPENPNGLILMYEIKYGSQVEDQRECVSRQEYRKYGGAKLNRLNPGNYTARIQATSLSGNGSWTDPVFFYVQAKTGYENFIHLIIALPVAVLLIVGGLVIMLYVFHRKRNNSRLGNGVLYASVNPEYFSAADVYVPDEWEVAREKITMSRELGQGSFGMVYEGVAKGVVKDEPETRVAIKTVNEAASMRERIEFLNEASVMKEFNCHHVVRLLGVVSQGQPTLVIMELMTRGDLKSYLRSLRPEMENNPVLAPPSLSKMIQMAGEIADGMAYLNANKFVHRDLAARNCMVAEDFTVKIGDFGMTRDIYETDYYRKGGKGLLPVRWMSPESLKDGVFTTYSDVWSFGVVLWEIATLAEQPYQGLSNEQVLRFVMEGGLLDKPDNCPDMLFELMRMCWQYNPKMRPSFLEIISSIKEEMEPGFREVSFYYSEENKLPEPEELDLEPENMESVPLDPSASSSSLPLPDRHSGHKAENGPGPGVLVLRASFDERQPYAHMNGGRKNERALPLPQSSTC

What is called IC50 is the point on the concentration scale where inhibition reaches its midpoint. On to `CC1(C)C(=O)N(c2ccc(C3(C(F)(F)F)CC3)cc2)C(=O)N1Cc1ccnc(NC2CC3(COC3)C2)c1` [Compound 120, 1-((2-((2-oxaspiro[3.3]heptan-6-yl)amino)pyridin-4-yl)methyl)-5,5-dimethyl-3-(4-(1-(trifluoromethyl)cyclopropyl)phenyl) imidazolidine-2,4-dione], for which the IC50 in experiment [1] and in experiment [2] was no more than 500 nM throughout.

With `COC[C@@H](C)Nc1cc(CN2C(=O)N(c3ccc(C4(C(F)(F)F)CC4)cc3)C(=O)C2(C)C)ccn1` [Compound 114, (R)-1-((2-((1-methoxypropan-2-yl)amino)pyridin-4-yl)methyl)-5,5-dimethyl-3-(4-(1-(trifluoromethyl)cyclopropyl)phenyl)imidazolidine-2,4-dione], the IC50 in experiment [1] and in experiment [2] was no more than 500 nM each time.

Take `CC1(C)C(=O)N(c2ccc(C3(C(F)(F)F)CC3)cc2)C(=O)N1Cc1ccnc2c1OCCN2` [Compound 17, 1-((3,4-dihydro-2H-pyrido[3,2-b][1,4]oxazin-8-yl)methyl)-5,5-dimethyl-3-(4-(1-(trifluoromethyl)cyclopropyl)phenyl) imidazolidine-2,4-dione]: the IC50 in experiment [1] and in experiment [2] was no more than 500 nM throughout.

On to `CC(C)Nc1cc(CN2C(=O)N(c3ccc(C4(C(F)(F)F)CC4)cc3)C(=O)C2(C)C)ccn1` [Compound 84, 1-((2-(isopropylamino)pyridin-4-yl)methyl)-5,5-dimethyl-3-(4-(1-(trifluoromethyl)cyclopropyl)phenyl)imidazolidine-2,4-dione], for which the IC50 in experiment [1] and in experiment [2] was no more than 500 nM throughout.

On to `COc1c(CN2C(=O)N(c3ccc(S(=O)(=O)C(F)(F)F)cc3)C(=O)C2(C)C)ccnc1N` [Compound 394, 1-((2-amino-3-methoxypyridin-4-yl)methyl)-5,5-dimethyl-3-(4-((trifluoromethyl)sulfonyl)phenyl) imidazolidine-2,4-dione], for which the IC50 in experiment [1] and in experiment [2] was no more than 500 nM in each case.

For `CC(C)Nc1cc(CN2C(=O)N(c3ccc(SC(F)(F)F)nc3)C(=O)C2(C)C)ccn1` [Compound 392, 1-((2-(isopropylamino)pyridin-4-yl)methyl)-5,5-dimethyl-3-(6-((trifluoromethyl)thio)pyridin-3-yl)imidazolidine-2,4-dione], the IC50 in experiment [1] and in experiment [2] was 500 to 2000 nM throughout.
